This is an account of results in ChEMBL document CHEMBL1201862, “PubChem BioAssay data set” (2004).

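Grown in 96-well plates, cells were treated for 48 hours with each compound at five concentrations. Insufficient inhibition: endpoint recorded as highest concentration tested. GI50 = concentration required for 50% inhibition of growth.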 Calls of active or inactive are those of the source. Cut-off read from the data, not from the text of the source: active = GI50 up to about 1.1 µM and inactive = higher. Some results are limits rather than exact numbers.

Common to all, as to assay: NCI anticancer screen, dose series, 48 h
The subject of assay [1] is EKVX.
For assay [2], the system named is HCT-15.
The subject of assay [3] is HOP-18.
In assay [4] the test system is HOP-62.
In assay [5] the test system is KM-20L2.
For assay [6], the system named is Malme-3M.
Assay [7] deals with NCI-H460.
Assay [8] has as its system OVCAR-3.
Assay [9] concerns RPMI-8226.
The test system of assay [10] is SK-MEL-28.
Assay [11] concerns SK-MEL-2.
Assay [12] relates to SK-OV-3.
In assay [13] the test system is SN12C.
For assay [14], the system named is SNB-78.
The test system of assay [15] is SW-620.
Assay [16] concerns HL-60.
In assay [17] the test system is K562.
Assay [18] deals with NCI-H226.
Assay [19] relates to NCI-H522.
Assay [20] has as its system SF-268.

Turning to `COc1ccc(C2C(C(=O)O)=C(CO)Oc3cc4c(cc32)OCO4)cc1` (stereo not given), the GI50 was > 100 µM (inactive) in assay [1]; more than 100 µM in [2]; > 100 µM (inactive) in assay [3]; 32.5 µM (inactive) in assay [4]; > 100 µM (inactive) in assay [5]; > 100 µM (inactive) in assay [6]. The GI50 in [7], in assay [8], in [9], in assay [10], in assay [11] and in assay [12] was > 100 µM (inactive) throughout. Moreover, the GI50 in assay [13], in assay [14] and in assay [15] was > 100 µM (inactive) in each case.

As for `CCOC(=O)C(=CNC(Cc1c[nH]c2ccccc12)C(=O)OC)C(=O)OCC` (stereo not given), the GI50 in [1] is > 100 µM (inactive); in assay [2], more than 100 µM; in assay [16], > 100 µM (inactive); in assay [3], 92 µM (inactive); in [4], < 0.01 µM (active); in [17] it was > 100 µM (inactive). For the same compound, the GI50 in assay [5] is > 100 µM (inactive); in assay [6] it was > 100 µM (inactive); in assay [18], > 100 µM (inactive); in assay [7], 44.7 µM (inactive); in [19], > 100 µM (inactive); in assay [8], > 100 µM (inactive). Besides, the GI50 in assay [9] was > 100 µM (inactive); in [20], > 100 µM (inactive); in assay [10], > 100 µM (inactive); in [11], 63.8 µM (inactive); in assay [12], > 100 µM (inactive); in assay [13], > 100 µM (inactive). Besides, the GI50 in assay [14] and in [15] was > 100 µM (inactive) throughout.

Regarding `C#CCOc1c(C(=O)OCC)c(=O)n(C)c2ccccc12`, the GI50 in assay [1] was > 100 µM (inactive); in [2], more than 100 µM; in assay [16] it was > 100 µM (inactive); in assay [3], > 100 µM (inactive); in assay [4], < 0.01 µM (active); in assay [17], > 100 µM (inactive). Besides, the GI50 in assay [5], in assay [6], in assay [18], in assay [7], in [19] and in [8] was > 100 µM (inactive) each time. Also, the GI50 in assay [9], in [20], in assay [10], in assay [11], in assay [12] and in assay [13] was > 100 µM (inactive) throughout. Also, the GI50 in assay [14] and in assay [15] was > 100 µM (inactive) each time.

On to `N=S(=O)(c1ccccc1)c1ccccc1`, for which the GI50 in [1] is > 100 µM (inactive); in assay [16] it was > 100 µM (inactive); in assay [3] it was > 100 µM (inactive); in [4], > 100 µM (inactive); in assay [17], 28.2 µM (inactive); in assay [5], > 100 µM (inactive). For the same compound, the GI50 in assay [6], in [18], in assay [7], in [19], in assay [8] and in assay [9] was > 100 µM (inactive) each time. For the same compound, the GI50 in assay [20], in assay [10], in [11], in assay [12], in [13] and in assay [14] was > 100 µM (inactive) in each case. For the same compound, the GI50 in [15] is > 100 µM (inactive).

Turning to `NC(CCOCCP(=O)(O)O)C(=O)O` (stereo not given), the GI50 was > 100 µM (inactive) in [1]; more than 100 µM in assay [2]; > 100 µM (inactive) in assay [16]; > 100 µM (inactive) in [17]; > 100 µM (inactive) in [7]; > 100 µM (inactive) in assay [19]. Besides, the GI50 in assay [8], in [9], in assay [20], in assay [10], in assay [11] and in assay [12] was > 100 µM (inactive) in each case. The GI50 in assay [13] and in assay [15] was > 100 µM (inactive) in each case.

On to `Nc1nc(=O)[nH][nH]1`, for which the GI50 in [1] is > 100 µM (inactive); in assay [2] it was more than 100 µM; in [16] it was > 100 µM (inactive); in assay [4], > 100 µM (inactive); in assay [17], > 100 µM (inactive); in assay [5], > 100 µM (inactive). Moreover, the GI50 in [6], in assay [18], in assay [7], in assay [19], in [8] and in [9] was > 100 µM (inactive) in each case. Further, the GI50 in [20], in assay [10], in assay [11], in [12], in [13] and in assay [14] was > 100 µM (inactive) throughout. Besides, the GI50 in [15] was > 100 µM (inactive).

As for `O=C1NC(=O)C2(CCc3ccc(N(CCCl)CCCl)cc32)N1` (stereo not given), the GI50 in assay [1] is 3.15 µM (inactive); in [2], 15.1 µM; in assay [16], 1.65 µM (inactive); in assay [3], 20.2 µM (inactive); in assay [4], 9.91 µM (inactive); in assay [17], 19.8 µM (inactive). Further, the GI50 in [5] was 19.5 µM (inactive); in assay [18] it was 2.08 µM (inactive); in assay [7], 3.98 µM (inactive); in [19] it was 5.26 µM (inactive); in assay [8] it was 18.4 µM (inactive); in assay [9], 19.7 µM (inactive). Further, the GI50 in assay [20] is 7.36 µM (inactive); in [10], 17.5 µM (inactive); in assay [11], 21.7 µM (inactive); in assay [12], 16.1 µM (inactive); in assay [13], 5.37 µM (inactive); in [14] it was 22 µM (inactive). The GI50 in assay [15] was 18.2 µM (inactive).

In the case of `CC1C(O)[C@@]2(OC[C@@]34C(=O)CC5(O)[C@H](CCC6Cc7nc8c(nc7C[C@]65C)CC5CC[C@@H]6C7=C[C@H]9O[C@@]%10(O[C@@](C)(CO)C[C@@H]%10O)C(C)[C@@]9(O)[C@]7(C)[C@@H](O)CC6[C@]5(C)C8)C3=CC[C@H]4C2C)OC1(C)C` (stereo not given in full), the GI50 was 0.00084 µM (active) in [1]; 0.00667 µM in assay [2]; < 0.000355 µM (active) in assay [16]; 0.849 µM (active) in assay [3]; < 0.000355 µM (active) in assay [4]; < 0.000355 µM (active) in assay [17]. Moreover, the GI50 is 0.000796 µM (active) in assay [5]; 0.00287 µM (active) in [6]; > 3.55 µM (inactive) in assay [18]; < 0.000355 µM (active) in [7]; 0.00308 µM (active) in [19]; 1.26 µM (inactive) in [8]. For the same compound, the GI50 was < 0.000355 µM (active) in assay [9]; 0.000659 µM (active) in [20]; 0.000524 µM (active) in assay [11]; 0.00226 µM (active) in assay [12]; 0.628 µM (active) in assay [13]; 0.00146 µM (active) in assay [14]. The GI50 in [15] was 0.000385 µM (active).
